One assay deals with Scedosporium boydii. In words: Antifungal activity against Allescheria boydii after 7 days by agar tube dilution method. It is filed as functional. Particulars: 168 h.
Another assay concerns Aspergillus niger. The assay is described as follows: Antifungal activity against Aspergillus niger after 7 days by agar tube dilution method. The format is functional. Particulars: 168 h.
For a further assay, the system named is Epidermophyton floccosum. The assay is described as follows: Antifungal activity against Epidermophyton floccosum after 7 days by agar tube dilution method. The following applies: 168 h. The format is functional.
The subject of another assay is Pleurotus ostreatus. In words: Antifungal activity against Pleurotus ostreatus after 7 days by agar tube dilution method. It is filed as functional. Particulars: 168 h.
Another assay has as its system Stachybotrys chartarum. The assay is described as follows: Antifungal activity against Stachybotrys atra after 7 days by agar tube dilution method. The format is functional, organism-based.
For a further assay, the system named is Nigrospora oryzae. The assay is described as follows: Antifungal activity against Nigrospora oryzae after 7 days by agar tube dilution method. It is filed as functional, organism-based.
A short description of assay [1]: Antifungal activity against Dutarium rotatum after 7 days by agar tube dilution method. The format is functional.

Converted amounts (≈) assume the structure as drawn. The source made the active and inactive calls.

In the case of `C=C1C[C@@]23C(=O)C(=O)[C@@H]4[C@@]5(C)C[C@H](OC(C)=O)C[C@@]46[C@@H]2C[C@@H]1C(=O)[C@@H]3[C@H]6N(C)C5` [VILMORRIANONE], the MIC against Scedosporium boydii came to 150 µg/mL (≈ 377 µM); against Aspergillus niger, 100 µg/mL (≈ 252 µM); in the assay on Epidermophyton floccosum, 225 µg/mL (≈ 566 µM); in the assay with Pleurotus ostreatus it was 175 µg/mL (≈ 440 µM).

Turning to `CCN1C[C@]2(C)CC[C@H](OC)[C@@]34[C@@H]5C[C@@H]6CC[C@](OC(C)=O)([C@@H](C[C@H]23)[C@@H]14)[C@H]5C(=O)O6`, the MIC with Scedosporium boydii was found to be 100 µg/mL (≈ 239 µM); in the assay on Aspergillus niger, 200 µg/mL (≈ 479 µM); in the assay with Epidermophyton floccosum it was 250 µg/mL (≈ 599 µM); with Pleurotus ostreatus it was 150 µg/mL (≈ 359 µM).

As to `C=C1C[C@@]23CC(=O)[C@@H]4[C@@]5(C)C[C@H](OC(C)=O)C[C@@]46[C@@H]2C[C@@H]1C(=O)[C@@H]3[C@H]6N(C)C5` [PANICUTINE], the minimum inhibitory concentration (MIC) was found to be 75 µg/mL (≈ 196 µM) against Scedosporium boydii, 125 µg/mL (≈ 326 µM) in the assay with Aspergillus niger, 200 µg/mL (≈ 522 µM) against Epidermophyton floccosum and 125 µg/mL (≈ 326 µM) in the assay with Pleurotus ostreatus. Moreover, the outcome (in the assay on Stachybotrys chartarum; in the assay on Nigrospora oryzae; in assay [1]) was Active.

Broadly, the MIC is the smallest concentration in the dilution series that meets the test's criterion for growth inhibition.

For the origin of these results see ChEMBL document CHEMBL1146391, “Antifungal diterpenoid alkaloids from Delphinium denudatum” (1997).
